Laboratory results as given in patent publication US20010003751A1, “Pharmaceutical composition for treating transient ischemic attack” (priority 1995, published 2001).

Test system: transient ischemic attack (TIA) associated with the internal carotid arterial system
Experiment: phase III clinical study of TIA (efficacy in suppressing TIA recurrence, overall safety, utility ratings)
Type: in vivo, human (TIA patients)
Settings: TIA patients; for Efficacy (%): Effective / Efficacy (%): Indeterminable / Efficacy (%): Ineffective / Efficacy (%): Slightly Effective / Efficacy (%): Worsened: ITT
Protocol: Subjects and total number: The subjects of this study were patients who developed one or more TIA attacks associated with the internal carotid arterial system (NIH Diagnostic Criteria, 1990) during the 3-month period before initial administration (171 for efficacy and utility, 175 for safety). Tablets each containing 50 mg or 100 mg of the subject compound obtained in Example 1 were orally administered after breakfast once daily for 18 months. The study was conducted in double blind fashion. As regards conversion to cerebral infarction, temporal changes in TIA onset frequency, TIA symptoms and duration, etc., efficacy was rated at 6 months, 1 year and 18 months of administration, using a 5-grade rating system: The attack frequency at time of rating (during therapeutic period) 1 year and 18 months after initial administration served as an efficacy rating index. For rating at 6 months of administration and rating at less than 1 year due to discontinuation (adverse reactions etc.), rating was in regard to duration of administration period, with reference to the following rating criteria. [table] Overall safety was rated on the basis of adverse reactions, complications, and presence or absence of abnormal changes in clinical laboratory parameters and their degrees, using a 5-grade rating system: On the basis of efficacy and overall safety ratings for suppression of TIA recurrence, utility was rated using a 5-grade rating system: With regard to the above rating items, data were analyzed using ITT (intent-to-treat analysis), with the utility rating in overall assessment at final administration (18 months after administration) as the major item.

[1] = 50 mg/day oral once daily for 18 months, 86 patients
[2] = 50 mg/day oral once daily for 18 months, 85 patients
[3] = 100 mg/day oral once daily for 18 months, 89 patients
[4] = 100 mg/day oral once daily for 18 months, 86 patients

`O=C(O)CCCC/C=C(\c1ccccc1)c1cccnc1` [Test compound, (E)-7-(3-pyridyl)-7-phenyl-6-heptenic acid] was tested, and the “Overall Safety (%): Considerably Problematic” value [1] was 1.2%, the “Overall Safety (%): Indeterminable” value [1] was 4.7% and the “Overall Safety (%): No Problem” value [1] was 86.0%. The “Overall Safety (%): Slightly Problematic” value [1] was 8.1%, the “Overall Safety (%): Very Problematic” value [1] was 0% and the “Efficacy (%): Effective” value [2] was 64.7%. For the same compound, the “Efficacy (%): Indeterminable” value [2] was 10.6%, the “Efficacy (%): Ineffective” value [2] was 16.5% and the “Efficacy (%): Slightly Effective” value [2] was 2.3%. The “Efficacy (%): Worsened” value [2] was 5.9%, the “Overall Safety (%): Considerably Problematic” value [3] was 1.1% and the “Overall Safety (%): Indeterminable” value [3] was 3.4%. The “Overall Safety (%): No Problem” value [3] was 79.8%, the “Overall Safety (%): Slightly Problematic” value [3] was 13.5% and the “Overall Safety (%): Very Problematic” value [3] was 2.2%. The “Efficacy (%): Effective” value [4] was 66.3%, the “Efficacy (%): Indeterminable” value [4] was 11.6% and the “Efficacy (%): Ineffective” value [4] was 8.1%. For the same compound, the “Efficacy (%): Slightly Effective” value [4] was 7.0% and the “Efficacy (%): Worsened” value [4] was 7.0%.
